Reference: US9615577B2, “Herbicidally active cyclic dione compounds, or derivatives therefor, substituted by a phenyl which has an alkynyl-containing substituent” (Syngenta Limited, priority 2012, dated 2017)

Columns and labels:
Format in all cases: in vivo
Setaria faberi (SETFA) [1] = assay: Test 1A glasshouse assay for herbicidal activity, post-emergence; settings: 312 h, evaluated after 13 days, read-out: percentage phytotoxicity SETFA
Method in brief: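 Pots sprayed 1 day (pre-emergence) or 8 days (post-emergence) after sowing with compound in acetone/water (50:50) containing 0.5% Tween 20. Glasshouse at 24/16 °C day/night, 14 h light, 65% humidity; visual phytotoxicity scored after 13 days on 0–100 scale (100 = total damage).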

[2] = tested on: Beta vulgaris (BEAVA, sugar beet); assay: Test 1B glasshouse assay for herbicidal activity, pre-emergence; settings: 480 h, 20 DAA, read-out: percentage phytotoxicity BEAVA
Procedure: (§1) Seeds of a variety of monocotyledonous and dicotyledonous test plants are sown in standard soil in pots. The plants are cultivated for one day (for pre-emergence) or for about 12 days (range=10-13 days) (for post-emergence) under controlled conditions in a glasshouse (warm climate species at 24/18° C., cool climate species at 20/16° C., both at day/night; 16 hours light; 65% humidity).
(§2) An “instant formulation”, known as the “IF50”, containing 50 g/liter (i.e. 5% w/v) of the “technical” (i.e. unformulated) active ingredient is prepared by dissolving the active ingredient in a mixture of organic solvents and emulsifier, details of which are provided in the Table below. This IF50 is then mixed with a small, variable amount of acetone to aid dissolution, before addition of a 0.2% v/v aqueous solution of the adjuvant X-77 (which is a mixture of alkyl aryl polyoxyethylene glycols and free fatty acids in isopropanol, CAS Registry number 11097-66-8), as the aqueous diluent, to form an aqueous spray solution which contains a predetermined concentration of the active ingredient (which varies depending on the application rate of the active ingredient to the plants) and 0.2% v/v of the adjuvant X-77. This aqueous spray solution is then sprayed onto the plants, after one day's cultivation (for pre-emergence) or after about 12 days' cultivation (for post-emergence).
(§3) The test plants are then grown on, in a glasshouse (greenhouse) under controlled conditions (at either 24/18° C. or 20/16° C. (day/night) as mentioned above; 16 hours light; 65% humidity) and are watered twice daily. Either 15 days after application of the herbicide (15 DAA) (for post-emergence), or 20 days after application of the herbicide (20 DAA) (for pre-emergence), the test plants are evaluated visually, and an assessed percentage phytotoxicity score is given for each herbicidal application on each plant species (where 100%=total damage to plant; 0%=no damage to plant).
(§4) Cool climate crop plants: Triticum aestivum (TRZAW, winter wheat), Brassica napus (BRSNN, rape, also called oilseed rape or rapeseed), Beta vulgaris (BEAVA, sugar beet).

[3] = tested on: Brassica napus (BRSNN, rape); assay: as above; settings: 480 h, 20 DAA, read-out: percentage phytotoxicity BRSNN
Procedure: as §1, §2, §3, §4

[4] = tested on: Triticum aestivum (TRZAW, winter wheat); assay: as above; settings: 480 h, 20 DAA, read-out: percentage phytotoxicity TRZAW
Procedure: as §1, §2, §3, §4

[5] = tested on: Glycine max (GLXMA, soybean); assay: as above; settings: 480 h, 20 DAA, read-out: percentage phytotoxicity GLXMA
Procedure: as §1, §2, §3
(§5) Warm climate crop plants: Glycine max (GLXMA, soybean).

[6] = tested on: Beta vulgaris (BEAVA, sugar beet); assay: Test 1B glasshouse assay for herbicidal activity, post-emergence; settings: 360 h; for plant injury at 30 g/ha: 30 g/ha application rate; for plant injury at 125 g/ha: 125 g/ha application rate
Procedure: as §1, §2, §3, §4

[7] = tested on: Brassica napus (BRSNN, rape); assay: as above; settings: 360 h; for plant injury at 30 g/ha: 30 g/ha application rate; for plant injury at 125 g/ha: 125 g/ha application rate
Procedure: as §1, §2, §3, §4

[8] = tested on: Triticum aestivum (TRZAW, winter wheat); assay: as above; settings: 360 h; for plant injury at 30 g/ha: 30 g/ha application rate; for plant injury at 125 g/ha: 125 g/ha application rate
Procedure: as §1, §2, §3, §4

[9] = tested on: Glycine max (GLXMA, soybean); assay: as above; settings: 360 h; for plant injury at 30 g/ha: 30 g/ha application rate; for plant injury at 125 g/ha: 125 g/ha application rate
Procedure: as §1, §2, §3, §5

[10] = tested on: Alopecurus myosuroides (ALOMY); assay: as above; settings: 360 h; for pest or weed control at 30 g/ha: 30 g/ha application rate; for pest or weed control at 125 g/ha: 125 g/ha application rate
Procedure: as §1, §2, §3
(§6) Cool climate (“cool season”) grassy monocotyledonous weeds: Alopecurus myosuroides (ALOMY), Avena fatua (AVEFA), Lolium perenne (LOLPE).

Avena fatua (AVEFA) = assay: as above; settings: 360 h; for pest or weed control at 30 g/ha: 30 g/ha application rate; for pest or weed control at 125 g/ha: 125 g/ha application rate
Procedure: as §1, §2, §3, §6

Lolium perenne (LOLPE) = assay: as above; settings: 360 h; for pest or weed control at 30 g/ha: 30 g/ha application rate; for pest or weed control at 125 g/ha: 125 g/ha application rate
Procedure: as §1, §2, §3, §6

[11] = tested on: Digitaria sanguinalis (DIGSA); assay: as above; settings: 360 h; for pest or weed control at 30 g/ha: 30 g/ha application rate; for pest or weed control at 125 g/ha: 125 g/ha application rate
Procedure: as §1, §2, §3
(§7) Warm climate (“warm season”) grassy monocotyledonous weeds: Setaria faberi (SETFA), SORVU (Sorghum bicolor (L.) Moench ssp. Bicolor, or Sorghum vulgare Pers.), Digitaria sanguinalis (DIGSA), Echinochloa crus-galli (ECHCG), and Brachiaria plantaginea (BRAPL).

[12] = tested on: SORVU (Sorghum bicolor (L.) Moench ssp. Bicolor, or Sorghum vulgare Pers.); assay: as above; settings: 360 h; for pest or weed control at 30 g/ha: 30 g/ha application rate; for pest or weed control at 125 g/ha: 125 g/ha application rate
Procedure: as §1, §2, §3, §7

Setaria faberi (SETFA) [13] = assay: as above; settings: 360 h; for pest or weed control at 30 g/ha: 30 g/ha application rate; for pest or weed control at 125 g/ha: 125 g/ha application rate
Procedure: as §1, §2, §3, §7

[14] = tested on: Echinochloa crus-galli (ECHCG); assay: as above; settings: Echinochloa crus-galli; for pest or weed control at 30 g/ha: 30 g/ha application rate; for pest or weed control at 125 g/ha: 125 g/ha application rate
Procedure: as §1, §2, §3, §7
Note: The herbicidal activity data (e.g. post-emergence) shown above in Biological Example 1B for Comparator compounds X-9 and X-10 is thought likely to have been measured some years ago, probably using a variant of the above-described test method. Also, for the post-emergence activity of X-9 and X-10 it is not currently known exactly how many days after application of the herbicide the phytotoxicity on the plants was measured.

| Compound | pest or weed control at 250 g/ha (Setaria faberi (SETFA) [1]) [%] | plant injury at 30 g/ha [6] [%] | plant injury at 125 g/ha [6] [%] | plant injury at 30 g/ha [7] [%] | plant injury at 125 g/ha [7] [%] | plant injury at 30 g/ha [8] [%] | plant injury at 125 g/ha [8] [%] | plant injury at 30 g/ha [9] [%] | plant injury at 125 g/ha [9] [%] | pest or weed control at 30 g/ha [10] [%] | pest or weed control at 125 g/ha [10] [%] | pest or weed control at 30 g/ha (Avena fatua (AVEFA)) [%] | pest or weed control at 125 g/ha (Avena fatua (AVEFA)) [%] | pest or weed control at 30 g/ha (Lolium perenne (LOLPE)) [%] | pest or weed control at 125 g/ha (Lolium perenne (LOLPE)) [%] | pest or weed control at 30 g/ha [11] [%] | pest or weed control at 125 g/ha [11] [%] | pest or weed control at 30 g/ha [12] [%] | pest or weed control at 125 g/ha [12] [%] | pest or weed control at 30 g/ha (Setaria faberi (SETFA) [13]) [%] | further results |
| --- | --- | --- | --- | --- | --- | --- | --- | --- | --- | --- | --- | --- | --- | --- | --- | --- | --- | --- | --- | --- | --- |
| CC#Cc1cc(C)c(C2C(=O)C3CCC(C3)C2=O)c(OC)c1 (centres unmarked) [Compound A-10] | 100 | 20 | 20 | 40 | 60 | 60 | 80 | 10 | 20 | 60 | 100 | 20 | 40 | 30 | 80 | 90 | 100 | 100 | 100 | 80 | plant injury at 125 g/ha ([2]; 125 g/ha): 0%; plant injury at 125 g/ha ([3]; 125 g/ha): 0%; plant injury at 125 g/ha ([4]; 125 g/ha): 20%; plant injury at 125 g/ha ([5]; 125 g/ha): 0%; pest or weed control at 125 g/ha (Setaria faberi (SETFA) [13]): 100%; pest or weed control at 30 g/ha [14]: 90%; pest or weed control at 125 g/ha [14]: 100% |
| CC#Cc1cc(Cl)c(C2C(=O)C3CCC(C3)C2=O)c(OC)c1 (centres unmarked) [Compound A-12] | 100 | 0 | 20 | 60 | 80 | 40 | 60 | 0 | 10 | 10 | 70 | 0 | 30 | 0 | 70 | 100 | 100 | 80 | 100 | 70 | pest or weed control at 62.5 g/ha (Setaria faberi (SETFA) [1]; 62.5 g/ha): 100%; plant injury at 250 g/ha ([2]; 250 g/ha): 10%; plant injury at 250 g/ha ([3]; 250 g/ha): 20%; plant injury at 250 g/ha ([4]; 250 g/ha): 30%; plant injury at 250 g/ha ([5]; 250 g/ha): 40%; pest or weed control at 125 g/ha (Setaria faberi (SETFA) [13]): 80%; pest or weed control at 30 g/ha [14]: 90%; pest or weed control at 125 g/ha [14]: 100% |
| CC#Cc1ccc(C2C(=O)C(C)(C)OC(C)(C)C2=O)c(C)c1 [Compound A-1] | 70 |  |  |  |  |  |  |  |  |  |  |  |  |  |  |  |  |  |  |  | plant injury at 500 g/ha ([2]; 500 g/ha): 10%; plant injury at 500 g/ha ([3]; 500 g/ha): 60%; plant injury at 500 g/ha ([4]; 500 g/ha): 40%; plant injury at 500 g/ha ([5]; 500 g/ha): 10%; plant injury at 60 g/ha ([6]; 60 g/ha application rate): 30%; plant injury at 60 g/ha ([7]; 60 g/ha application rate): 70%; plant injury at 60 g/ha ([8]; 60 g/ha application rate): 80%; plant injury at 60 g/ha ([9]; 60 g/ha application rate): 70%; pest or weed control at 60 g/ha ([10]; 60 g/ha application rate): 80%; pest or weed control at 60 g/ha (Avena fatua (AVEFA); 60 g/ha application rate): 60%; pest or weed control at 60 g/ha (Lolium perenne (LOLPE); 60 g/ha application rate): 80%; pest or weed control at 60 g/ha ([11]; 60 g/ha application rate): 80%; pest or weed control at 60 g/ha ([12]; 60 g/ha application rate): 0%; pest or weed control at 60 g/ha (Setaria faberi (SETFA) [13]; 60 g/ha application rate): 70%; pest or weed control at 60 g/ha ([14]; 60 g/ha application rate): 90% |
